According to patent US20180319810A1, “SUBSTITUTED BRIDGED UREA ANALOGS AS SIRTUIN MODULATORS” (GlaxoSmithKline Intellectual Property (No.2) Limited, priority 2014, published 2018):

Molecular target: T1, SIRT1 (Homo sapiens, UniProt Q96EB6)
T1 sequence (Q96EB6 1-747): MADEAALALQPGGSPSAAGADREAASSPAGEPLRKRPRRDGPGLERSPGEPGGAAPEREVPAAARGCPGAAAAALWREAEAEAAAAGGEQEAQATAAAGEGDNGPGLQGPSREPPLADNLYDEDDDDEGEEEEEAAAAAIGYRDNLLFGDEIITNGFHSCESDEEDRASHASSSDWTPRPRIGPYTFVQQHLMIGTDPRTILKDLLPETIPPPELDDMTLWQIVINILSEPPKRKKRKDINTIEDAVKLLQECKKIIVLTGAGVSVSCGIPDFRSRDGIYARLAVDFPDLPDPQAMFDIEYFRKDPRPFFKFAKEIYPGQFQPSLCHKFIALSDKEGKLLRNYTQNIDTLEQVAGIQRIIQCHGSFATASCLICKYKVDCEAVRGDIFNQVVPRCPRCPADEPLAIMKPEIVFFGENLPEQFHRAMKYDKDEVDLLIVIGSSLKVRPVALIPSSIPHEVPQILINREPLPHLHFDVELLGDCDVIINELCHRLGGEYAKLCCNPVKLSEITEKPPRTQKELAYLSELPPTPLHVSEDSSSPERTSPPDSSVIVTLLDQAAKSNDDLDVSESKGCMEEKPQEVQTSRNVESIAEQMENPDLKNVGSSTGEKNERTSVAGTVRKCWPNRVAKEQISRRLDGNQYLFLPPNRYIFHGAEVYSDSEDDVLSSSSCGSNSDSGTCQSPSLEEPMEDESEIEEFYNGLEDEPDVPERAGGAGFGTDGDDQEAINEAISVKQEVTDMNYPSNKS
Assay: Trp mass spectrometry assay of SIRT1 activation
Format: biochemical
Conditions: Trp peptide Ac-R-H-K-K(Ac)-W-NH2 0.5 μM, 120 μM βNAD+, 10 nM SIRT1, 25 min, 25° C.

Row | Compound | TRP Activity (EC1.5, concentration of compound required to increase SIRT1 activity by 50% over control) | TRP MAX RESP (percent maximum fold activation relative to control)
1 | Cc1nc(-c2cccc(C(F)(F)F)c2)nc2c1N1CCC[C@@H](C1)N2C(=O)Nc1cncc(OC[C@H](O)CO)c1 [Example 107, (9S)—N-(5-((R)-2,3-dihydroxypropoxy)pyridin-3-yl)-4-methyl-2-(3-(trifluoromethyl)phenyl)-8,9-dihydro-6H-5,9-methanopyrimido[4,5-b][1,4]diazocine-10(7H)-carboxamide] | A (EC1.5<1 μM) | A (Fold activation ≥150%)
2 | O=C(Nc1cnnc(OC[C@@H](O)CO)c1)N1c2nc(-c3cccc(C(F)(F)F)c3)ncc2N2CCC[C@H]1C2 [Example 108, (9S)—N-(6-((S)-2,3-dihydroxypropoxy)pyridazin-4-yl)-2-(3-(trifluoromethyl)phenyl)-8,9-dihydro-6H-5,9-methanopyrimido[4,5-b][1,4]diazocine-10(7H)-carboxamide] | A (EC1.5<1 μM) | A (Fold activation ≥150%)
3 | Cc1nc(-c2cccc(C(F)(F)F)c2)nc2c1N1CCC[C@@H](C1)N2C(=O)Nc1cncc(OC[C@@H](O)CO)c1 [Example 109, (9S)—N-(5-((S)-2,3-dihydroxypropoxy)pyridin-3-yl)-4-methyl-2-(3-(trifluoromethyl)phenyl)-8,9-dihydro-6H-5,9-methanopyrimido[4,5-b][1,4]diazocine-10(7H)-carboxamide] | A (EC1.5<1 μM) | A (Fold activation ≥150%)
4 | O=C(Nc1cnnc(OC[C@H](O)CO)c1)N1c2nc(-c3cccc(C(F)(F)F)c3)ncc2N2CCC[C@H]1C2 [Example 110, (9S)—N-(6-((R)-2,3-dihydroxypropoxy)pyridazin-4-yl)-2-(3-(trifluoromethyl)phenyl)-8,9-dihydro-6H-5,9-methanopyrimido[4,5-b][1,4]diazocine-10(7H)-carboxamide] | A (EC1.5<1 μM) | A (Fold activation ≥150%)
5 | Cc1nc(-c2cccc(C(F)(F)F)c2)nc2c1N1CCC[C@@H](C1)N2C(=O)Nc1nccc(OC[C@H](O)CO)n1 [Example 111, (9S)—N-(4-((R)-2,3-dihydroxypropoxy)pyrimidin-2-yl)-4-methyl-2-(3-(trifluoromethyl)phenyl)-8,9-dihydro-6H-5,9-methanopyrimido[4,5-b][1,4]diazocine-10(7H)-carboxamide] | A (EC1.5<1 μM) | A (Fold activation ≥150%)
6 | Cc1nc(-c2cccc(C(F)(F)F)c2)nc2c1N1CCC[C@@H](C1)N2C(=O)Nc1nccc(OC[C@@H](O)CO)n1 [Example 112, (9S)—N-(4-((S)-2,3-dihydroxypropoxy)pyrimidin-2-yl)-4-methyl-2-(3-(trifluoromethyl)phenyl)-8,9-dihydro-6H-5,9-methanopyrimido[4,5-b][1,4]diazocine-10(7H)-carboxamide] | A (EC1.5<1 μM) | A (Fold activation ≥150%)
7 | Cc1nc(-c2cccc(C(F)(F)F)c2)nc2c1N1CCC[C@@H](C1)N2C(=O)Nc1ccc(OC[C@H](O)CO)cn1 [Example 113, (9S)—N-(5-((R)-2,3-dihydroxypropoxy)pyridin-2-yl)-4-methyl-2-(3-(trifluoromethyl)phenyl)-8,9-dihydro-6H-5,9-methanopyrimido[4,5-b][1,4]diazocine-10(7H)-carboxamide] | A (EC1.5<1 μM) | A (Fold activation ≥150%)
8 | Cc1cc(-c2ncc3c(n2)N(C(=O)Nc2cccnc2)[C@H]2CCCN3C2)ccn1 [Example 114, (9S)-2-(2-methylpyridin-4-yl)-N-(pyridin-3-yl)-8,9-dihydro-6H-5,9-methanopyrimido[4,5-b][1,4]diazocine-10(7H)-carboxamide] | B (EC1.5 1-25 μM) | A (Fold activation ≥150%)
9 | Cc1ncc(-c2ccnc(NC(=O)N3c4nc(C(=O)N[C@H](C)C(F)(F)F)ncc4N4CC[C@H]3C4)c2)o1 [Example 115, (8S)—N9-(4-(2-methyloxazol-5-yl)pyridin-2-yl)-N2-((R)-1,1,1-trifluoropropan-2-yl)-7,8-dihydro-5,8-methanopyrimido[4,5-b][1,4]diazepine-2,9(6H)-dicarboxamide] | B (EC1.5 1-25 μM) | A (Fold activation ≥150%)
10 | O=C(NC1CC1)c1ncc2c(n1)N(C(=O)Nc1ccccn1)[C@H]1CCCN2C1 [Example 116, (9S)—N2-cyclopropyl-N10-(pyridin-2-yl)-8,9-dihydro-6H-5,9-methanopyrimido[4,5-b][1,4]diazocine-2,10(7H)-dicarboxamide] | C (EC1.5>25 μM) | A (Fold activation ≥150%)
11 | C[C@@H](NC(=O)c1ncc2c(n1)N(C(=O)Nc1cccc(OC[C@@H](O)CO)n1)[C@H]1CCCN2C1)C(F)(F)F [Example 117, (9S)—N10-(6-((S)-2,3-dihydroxypropoxy)pyridin-2-yl)-N2-((R)-1,1,1-trifluoropropan-2-yl)-8,9-dihydro-6H-5,9-methanopyrimido[4,5-b][1,4]diazocine-2,10(7H)-dicarboxamide] | B (EC1.5 1-25 μM) | A (Fold activation ≥150%)
12 | Cc1nc(C(=O)N[C@H](C)C(F)(F)F)nc2c1N1CCC[C@@H](C1)N2C(=O)Nc1ccc(OC[C@@H](O)CO)cn1 [Example 118, (9S)—N10-(5-((S)-2,3-dihydroxypropoxy)pyridin-2-yl)-4-methyl-N2-((R)-1,1,1-trifluoropropan-2-yl)-8,9-dihydro-6H-5,9-methanopyrimido[4,5-b][1,4]diazocine-2,10(7H)-dicarboxamide] | A (EC1.5<1 μM) | A (Fold activation ≥150%)
13 | C[C@@H](NC(=O)c1ncc2c(n1)N(C(=O)Nc1ccc(OC[C@@H](O)CO)cn1)[C@H]1CCCN2C1)C(F)(F)F [Example 119, (9S)—N10-(5-((S)-2,3-dihydroxypropoxy)pyridin-2-yl)-N2-((R)-1,1,1-trifluoropropan-2-yl)-8,9-dihydro-6H-5,9-methanopyrimido[4,5-b][1,4]diazocine-2,10(7H)-dicarboxamide] | A (EC1.5<1 μM) | A (Fold activation ≥150%)
